What was measured:
[1] = 101.33 kPa, Liquid, Vibrating tube method
[2] = molar heat capacity at constant pressure; details: 101.33 kPa, Liquid, Small sample (50 mg) DSC

Clc1ccc(Cl)c(Cl)c1 [1,2,4-trichlorobenzene]
Details	mass density [kg/m3]	molar heat capacity at constant pressure [J/K/mol]
[1], 288.15 K	1460.65	–
[1], 298.15 K	1448.67	–
[1], 308.15 K	1436.73	–
[1], 318.15 K	1424.8	–
[1], 328.15 K	1412.89	–
[1], 338.15 K	1400.98	–
[2], 293.15 K	–	194.25
[2], 295.15 K	–	194.57
[2], 297.15 K	–	194.9
[2], 299.15 K	–	195.23
[2], 301.15 K	–	195.57
[2], 303.15 K	–	195.92
[2], 305.15 K	–	196.27
[2], 307.15 K	–	196.63
[2], 309.15 K	–	196.99
[2], 311.15 K	–	197.35
[2], 313.15 K	–	197.72
[2], 315.15 K	–	198.09
[2], 317.15 K	–	198.47
[2], 319.15 K	–	198.85
[2], 321.15 K	–	199.23
[2], 323.15 K	–	199.61
[2], 325.15 K	–	200
[2], 327.15 K	–	200.38
[2], 329.15 K	–	200.77
[2], 331.15 K	–	201.16
[2], 333.15 K	–	201.55
[2], 335.15 K	–	201.93
[2], 337.15 K	–	202.32
[2], 339.15 K	–	202.71
[2], 341.15 K	–	203.09
[2], 343.15 K	–	203.47
[2], 345.15 K	–	203.85
[2], 347.15 K	–	204.23
[2], 349.15 K	–	204.61
[2], 351.15 K	–	204.98
[2], 353.15 K	–	205.35

Clc1cccc(Cl)c1 [1,3-dichlorobenzene]
Details	mass density [kg/m3]	molar heat capacity at constant pressure [J/K/mol]
[1], 288.15 K	1294.08	–
[1], 298.15 K	1282.79	–
[1], 308.15 K	1271.49	–
[1], 318.15 K	1260.17	–
[1], 328.15 K	1248.82	–
[1], 338.15 K	1237.42	–
[2], 283.15 K	–	167.15
[2], 285.15 K	–	167.54
[2], 287.15 K	–	167.93
[2], 289.15 K	–	168.32
[2], 291.15 K	–	168.72
[2], 293.15 K	–	169.13
[2], 295.15 K	–	169.55
[2], 297.15 K	–	169.97
[2], 299.15 K	–	170.39
[2], 301.15 K	–	170.82
[2], 303.15 K	–	171.25
[2], 305.15 K	–	171.69
[2], 307.15 K	–	172.14
[2], 309.15 K	–	172.58
[2], 311.15 K	–	173.04
[2], 313.15 K	–	173.49
[2], 315.15 K	–	173.95
[2], 317.15 K	–	174.41
[2], 319.15 K	–	174.88
[2], 321.15 K	–	175.35
[2], 323.15 K	–	175.83
[2], 325.15 K	–	176.3
[2], 327.15 K	–	176.78
[2], 329.15 K	–	177.26
[2], 331.15 K	–	177.75
[2], 333.15 K	–	178.24
[2], 335.15 K	–	178.73
[2], 337.15 K	–	179.22
[2], 339.15 K	–	179.71
[2], 341.15 K	–	180.2
[2], 343.15 K	–	180.7
[2], 345.15 K	–	181.2
[2], 347.15 K	–	181.7
[2], 349.15 K	–	182.2
[2], 351.15 K	–	182.7
[2], 353.15 K	–	183.2

Clc1ccccc1Br [1-bromo-2-chlorobenzene]
Details	mass density [kg/m3]	molar heat capacity at constant pressure [J/K/mol]
[1], 288.15 K	1659.67	–
[1], 298.15 K	1646.32	–
[1], 308.15 K	1633.01	–
[1], 318.15 K	1619.69	–
[1], 328.15 K	1606.36	–
[1], 338.15 K	1593.03	–
[2], 283.15 K	–	172.25
[2], 285.15 K	–	172.59
[2], 287.15 K	–	172.94
[2], 289.15 K	–	173.29
[2], 291.15 K	–	173.65
[2], 293.15 K	–	174.02
[2], 295.15 K	–	174.39
[2], 297.15 K	–	174.78
[2], 299.15 K	–	175.17
[2], 301.15 K	–	175.56
[2], 303.15 K	–	175.96
[2], 305.15 K	–	176.36
[2], 307.15 K	–	176.77
[2], 309.15 K	–	177.19
[2], 311.15 K	–	177.61
[2], 313.15 K	–	178.03
[2], 315.15 K	–	178.45
[2], 317.15 K	–	178.88
[2], 319.15 K	–	179.31
[2], 321.15 K	–	179.74
[2], 323.15 K	–	180.17
[2], 325.15 K	–	180.6
[2], 327.15 K	–	181.03
[2], 329.15 K	–	181.47
[2], 331.15 K	–	181.9
[2], 333.15 K	–	182.33
[2], 335.15 K	–	182.77
[2], 337.15 K	–	183.2
[2], 339.15 K	–	183.62
[2], 341.15 K	–	184.05
[2], 343.15 K	–	184.47
[2], 345.15 K	–	184.89
[2], 347.15 K	–	185.31
[2], 349.15 K	–	185.72
[2], 351.15 K	–	186.13
[2], 353.15 K	–	186.53

Brc1cccc(Br)c1 [1,3-dibromobenzene]
Details	mass density [kg/m3]	molar heat capacity at constant pressure [J/K/mol]
[1], 288.15 K	1964.14	–
[1], 298.15 K	1948.87	–
[1], 308.15 K	1933.61	–
[1], 318.15 K	1918.3	–
[1], 328.15 K	1903.13	–
[1], 338.15 K	1887.88	–
[2], 283.15 K	–	176.01
[2], 285.15 K	–	176.4
[2], 287.15 K	–	176.71
[2], 289.15 K	–	177.04
[2], 291.15 K	–	177.38
[2], 293.15 K	–	177.72
[2], 295.15 K	–	178.08
[2], 297.15 K	–	178.44
[2], 299.15 K	–	178.81
[2], 301.15 K	–	179.19
[2], 303.15 K	–	179.58
[2], 305.15 K	–	179.97
[2], 307.15 K	–	180.37
[2], 309.15 K	–	180.78
[2], 311.15 K	–	181.19
[2], 313.15 K	–	181.6
[2], 315.15 K	–	182.01
[2], 317.15 K	–	182.43
[2], 319.15 K	–	182.85
[2], 321.15 K	–	183.28
[2], 323.15 K	–	183.7
[2], 325.15 K	–	184.13
[2], 327.15 K	–	184.55
[2], 329.15 K	–	184.98
[2], 331.15 K	–	185.4
[2], 333.15 K	–	185.83
[2], 335.15 K	–	186.25
[2], 337.15 K	–	186.67
[2], 339.15 K	–	187.08
[2], 341.15 K	–	187.49
[2], 343.15 K	–	187.9
[2], 345.15 K	–	188.3
[2], 347.15 K	–	188.7
[2], 349.15 K	–	189.09
[2], 351.15 K	–	189.47
[2], 353.15 K	–	189.85

Source: the NIST ThermoML archive (doi:10.1021/je600573w)
